# Test results: article PMC9132982, “Inhibitory role of proguanil on the growth of bladder cancer via enhancing EGFR degradation and inhibiting its downstream signaling pathway to induce autophagy” (Cell Death & Disease, 2022)
# Molecular target: epidermal growth factor receptor (EGFR) (Homo sapiens, UniProt P00533)
# Assay: SPRi with photo-crosslinked immobilized proguanil capturing proteins from T24 cell lysate, identified by LC-MS; no Kd
# Format: cell-based
# Chain of epidermal growth factor receptor (EGFR) (P00533 25-1210): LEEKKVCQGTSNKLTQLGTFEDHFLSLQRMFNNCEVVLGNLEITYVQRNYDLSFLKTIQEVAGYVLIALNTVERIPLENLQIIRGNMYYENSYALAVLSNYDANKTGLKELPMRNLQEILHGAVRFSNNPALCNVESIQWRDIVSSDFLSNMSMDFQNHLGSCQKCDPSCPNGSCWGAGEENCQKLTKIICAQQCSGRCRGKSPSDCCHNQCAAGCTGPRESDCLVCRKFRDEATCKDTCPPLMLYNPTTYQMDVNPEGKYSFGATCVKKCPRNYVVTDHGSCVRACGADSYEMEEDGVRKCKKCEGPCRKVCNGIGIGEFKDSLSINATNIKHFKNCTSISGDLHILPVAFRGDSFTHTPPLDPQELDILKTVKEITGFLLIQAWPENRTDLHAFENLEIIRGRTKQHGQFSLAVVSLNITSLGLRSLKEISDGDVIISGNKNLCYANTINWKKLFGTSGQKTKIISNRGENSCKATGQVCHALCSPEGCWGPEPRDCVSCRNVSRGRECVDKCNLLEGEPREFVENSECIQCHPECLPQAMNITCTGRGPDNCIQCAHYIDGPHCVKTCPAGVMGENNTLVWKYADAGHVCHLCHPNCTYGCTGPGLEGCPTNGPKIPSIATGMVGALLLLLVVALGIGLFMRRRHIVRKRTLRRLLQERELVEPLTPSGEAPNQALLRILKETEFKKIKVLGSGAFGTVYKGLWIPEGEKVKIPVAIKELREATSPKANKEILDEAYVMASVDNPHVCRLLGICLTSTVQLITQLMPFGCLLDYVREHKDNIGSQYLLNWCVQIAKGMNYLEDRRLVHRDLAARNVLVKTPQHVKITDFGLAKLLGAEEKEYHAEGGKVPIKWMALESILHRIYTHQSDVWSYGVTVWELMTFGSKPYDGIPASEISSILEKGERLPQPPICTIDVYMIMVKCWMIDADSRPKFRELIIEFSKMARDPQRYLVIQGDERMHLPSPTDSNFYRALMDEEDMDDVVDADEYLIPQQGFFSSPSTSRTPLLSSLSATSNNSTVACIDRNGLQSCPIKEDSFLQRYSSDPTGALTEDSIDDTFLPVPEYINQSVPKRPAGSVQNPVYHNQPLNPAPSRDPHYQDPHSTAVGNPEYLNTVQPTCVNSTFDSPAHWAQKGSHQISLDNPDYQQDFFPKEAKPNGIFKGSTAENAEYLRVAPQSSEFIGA
structure (smiles),measurement,value
[H]/N=C(\N/C(=N/[H])Nc1ccc(Cl)cc1)NC(C)C [proguanil],SPRi with photo-crosslinked immobilized proguanil capturing proteins from T24 ce,surface plasmon resonance imaging (SPRi) experiments and found that proguanil strongly binds to EGFR (Fig. 1A)
